The record followed here is patent US8846918B2, “Compounds useful as inhibitors of ATR kinase” (Vertex Pharmaceuticals Incorporated, priority 2011, dated 2014).

The experiment concerns the target T1, ATR kinase (Homo sapiens, UniProt Q13535).
T1 construct: Assays were carried out at 25° C. in the presence of 5 nM full-length ATR
In words: ATR Inhibition Assay (radioactive-phosphate incorporation). It counts as biochemical. The conditions noted are these: Ki(app); 5 nM full-length ATR, 10 μM ATP, 800 μM target peptide, 25° C. The procedure: Compounds were screened for their ability to inhibit ATR kinase using a radioactive-phosphate incorporation assay. Assays were carried out in a mixture of 50 mM Tris/HCl (pH 7.5), 10 mM MgCl2 and 1 mM DTT. Final substrate concentrations were 10 μM [γ-33P]ATP (3 mCi 33P ATP/mmol ATP, Perkin Elmer) and 800 μM target peptide (ASELPASQPQPFSAKKK).
Assays were carried out at 25° C. in the presence of 5 nM full-length ATR. An assay stock buffer solution was prepared containing all of the reagents listed above, with the exception of ATP and the test compound of interest. 13.5 μL of the stock solution was placed in a 96 well plate followed by addition of 2 μL of DMSO stock containing serial dilutions of the test compound (typically starting from a final concentration of 15 μM with 3-fold serial dilutions) in duplicate (final DMSO concentration 7%). The plate was pre-incubated for 10 minutes at 25° C. and the reaction initiated by addition of 15 μL [γ-33P]ATP (final concentration 10 μM).
The reaction was stopped after […] by the addition of 300 μL 0.1M phosphoric acid containing 2 mM ATP. […]
After removing mean background values for all of the data points, Ki(app) data were calculated from non-linear regression analysis of the initial rate data using the Prism software package (GraphPad Prism version 3.0cx for Macintosh, GraphPad Software, San Diego Calif., USA).

T1 sequence (Q13535 whole entry): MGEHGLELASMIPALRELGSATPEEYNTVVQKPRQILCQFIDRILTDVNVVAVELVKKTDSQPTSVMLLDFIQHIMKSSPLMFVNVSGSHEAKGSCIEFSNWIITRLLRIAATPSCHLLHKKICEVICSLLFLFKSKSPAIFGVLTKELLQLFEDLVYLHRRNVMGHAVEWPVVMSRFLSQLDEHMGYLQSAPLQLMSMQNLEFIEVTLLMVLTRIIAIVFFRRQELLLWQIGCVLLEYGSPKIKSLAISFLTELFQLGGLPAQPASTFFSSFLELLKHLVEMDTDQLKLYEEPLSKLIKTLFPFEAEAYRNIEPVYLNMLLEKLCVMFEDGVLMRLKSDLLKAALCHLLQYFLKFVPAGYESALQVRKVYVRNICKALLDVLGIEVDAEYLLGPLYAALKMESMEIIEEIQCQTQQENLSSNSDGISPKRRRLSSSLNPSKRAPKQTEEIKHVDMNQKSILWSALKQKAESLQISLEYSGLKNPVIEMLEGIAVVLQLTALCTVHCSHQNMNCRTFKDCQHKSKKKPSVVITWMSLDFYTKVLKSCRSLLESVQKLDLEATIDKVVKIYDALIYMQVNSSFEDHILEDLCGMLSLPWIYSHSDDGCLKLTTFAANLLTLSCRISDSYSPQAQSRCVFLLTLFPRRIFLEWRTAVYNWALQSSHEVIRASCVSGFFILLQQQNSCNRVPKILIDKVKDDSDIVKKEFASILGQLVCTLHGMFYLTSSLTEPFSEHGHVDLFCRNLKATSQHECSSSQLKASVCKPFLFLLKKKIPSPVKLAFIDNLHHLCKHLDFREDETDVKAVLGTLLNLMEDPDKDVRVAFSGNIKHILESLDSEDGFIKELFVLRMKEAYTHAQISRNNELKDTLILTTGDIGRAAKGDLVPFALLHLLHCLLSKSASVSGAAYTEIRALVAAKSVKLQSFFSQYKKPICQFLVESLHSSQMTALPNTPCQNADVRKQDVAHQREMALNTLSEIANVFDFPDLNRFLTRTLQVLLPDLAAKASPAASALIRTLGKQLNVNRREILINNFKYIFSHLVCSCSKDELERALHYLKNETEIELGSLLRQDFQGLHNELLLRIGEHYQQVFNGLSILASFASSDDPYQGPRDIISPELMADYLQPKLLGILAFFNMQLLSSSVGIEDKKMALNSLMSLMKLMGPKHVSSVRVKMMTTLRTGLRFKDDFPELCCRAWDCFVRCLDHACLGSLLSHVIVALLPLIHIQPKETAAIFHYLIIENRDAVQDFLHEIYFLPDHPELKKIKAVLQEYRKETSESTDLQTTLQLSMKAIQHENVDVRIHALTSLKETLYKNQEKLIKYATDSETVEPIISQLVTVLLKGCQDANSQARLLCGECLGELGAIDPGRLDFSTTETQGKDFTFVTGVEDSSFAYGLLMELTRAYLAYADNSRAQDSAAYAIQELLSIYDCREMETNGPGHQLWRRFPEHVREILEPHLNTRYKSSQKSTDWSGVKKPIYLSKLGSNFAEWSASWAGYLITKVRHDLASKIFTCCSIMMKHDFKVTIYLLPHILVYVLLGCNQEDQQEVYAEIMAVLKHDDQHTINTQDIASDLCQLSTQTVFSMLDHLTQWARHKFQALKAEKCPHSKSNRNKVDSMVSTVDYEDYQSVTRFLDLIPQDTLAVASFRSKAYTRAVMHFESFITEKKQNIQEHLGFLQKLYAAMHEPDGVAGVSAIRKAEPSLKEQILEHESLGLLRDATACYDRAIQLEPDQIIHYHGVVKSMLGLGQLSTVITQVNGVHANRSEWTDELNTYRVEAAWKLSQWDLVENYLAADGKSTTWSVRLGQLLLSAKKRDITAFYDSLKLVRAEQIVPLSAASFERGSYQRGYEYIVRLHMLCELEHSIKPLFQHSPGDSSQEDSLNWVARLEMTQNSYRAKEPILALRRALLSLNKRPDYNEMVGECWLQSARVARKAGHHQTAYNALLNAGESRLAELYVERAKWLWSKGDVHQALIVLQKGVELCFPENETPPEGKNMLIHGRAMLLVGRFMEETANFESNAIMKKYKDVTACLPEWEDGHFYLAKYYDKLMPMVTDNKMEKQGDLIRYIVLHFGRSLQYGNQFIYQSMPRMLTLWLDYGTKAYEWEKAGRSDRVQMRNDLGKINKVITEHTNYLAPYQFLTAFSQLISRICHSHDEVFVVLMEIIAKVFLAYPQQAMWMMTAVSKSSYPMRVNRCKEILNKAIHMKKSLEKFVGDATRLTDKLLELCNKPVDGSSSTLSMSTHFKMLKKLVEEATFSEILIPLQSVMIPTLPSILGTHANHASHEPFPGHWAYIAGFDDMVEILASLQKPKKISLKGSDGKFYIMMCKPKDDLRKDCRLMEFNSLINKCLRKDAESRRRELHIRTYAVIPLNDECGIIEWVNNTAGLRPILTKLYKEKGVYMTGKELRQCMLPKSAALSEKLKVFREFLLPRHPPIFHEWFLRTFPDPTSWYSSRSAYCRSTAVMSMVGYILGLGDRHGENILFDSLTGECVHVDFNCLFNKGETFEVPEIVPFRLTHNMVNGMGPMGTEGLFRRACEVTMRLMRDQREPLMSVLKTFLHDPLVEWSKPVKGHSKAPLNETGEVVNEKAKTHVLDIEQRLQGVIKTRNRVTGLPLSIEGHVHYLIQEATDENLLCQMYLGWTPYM

As to “2-(4-(5-amino-6-(4-iodo-3-(4-(((tetrahydro-2H-pyran-4-yl)amino)methyl)phenyl)isoxazol-5-yl)pyrazin-2-yl)pyridin-2-yl)-2-methylpropanenitrile [Compound I-2]”, the Ki was found to be 90 nM.

On to `CC(C)S(=O)(=O)c1ccc(-c2cnc(N)c(-c3onc(-c4ccc(CNC5CCOCC5)cc4)c3I)n2)cc1` [Compound I-1, 3-(4-iodo-3-(4-(((tetrahydro-2H-pyran-4-yl)amino)methyl)phenyl)isoxazol-5-yl)-5-(4-(isopropylsulfonyl)phenyl)pyrazin-2-amine], for which the Ki is 16 nM.
